Data on 2 substances can be found in patent US20140193843A1 (Institut Pasteur, priority 2008, published 2014).

In test [1] the test system is anti-YQRFSR antibody 3RBF-SAB. In words: Competitive ELISA immuno-assay for Opiorphin. Format: binding, rabbit. Conditions: at 500 ng/ml final concentration. Background: An ELISA detects its analyte on a solid surface through an enzyme-linked reagent.
Source text: Y represents the antibody directed against Sialorphin.
The peptide was coated on the plastic support of the micro-titration plate (96-well-ImmunoPlate, Nunc).
Inter-assay variability was less than 10%.
Another test has as its system acute mechanical pain. Conditions: rat, pin-pain test, compared with morphine; cited from earlier work.

No end group written: not given here.

On to “QHNPR (Sialorphin; UniProt P13432 29-33, looked up)”, for which the “recognition by the antibody (specificity of the immuno-assay)” value in test [1] is reported as “not recognized”. Consider QRFSR [Opiorphin, QRFSR], for which, in the test on acute mechanical pain, the pain-suppressive potency result is given as “as effective as morphine”.
